Literature values as cited in patent US10842883B2, “Aqueous oral solutions of steroid hormones and hydroxypropyl-β-cyclodextrin with optimised bioavailability” (ALTERGON S.A., priority 2012, dated 2020).

Details: Gould et al., Food Chem. Toxicol. 43 (2005)

For `CC(O)COC[C@H]1O[C@@H]2O[C@H]3[C@H](O)[C@@H](O)[C@@H](O[C@H]4[C@H](O)[C@@H](O)[C@@H](O[C@H]5[C@H](O)[C@@H](O)[C@@H](O[C@H]6[C@H](O)[C@@H](O)[C@@H](O[C@H]7[C@H](O)[C@@H](O)[C@@H](O[C@H]8[C@H](O)[C@@H](O)[C@@H](O[C@H]1[C@H](O)[C@H]2O)O[C@@H]8COCC(C)O)O[C@@H]7COCC(C)O)O[C@@H]6COCC(C)O)O[C@@H]5COCC(C)O)O[C@@H]4COCC(C)O)O[C@@H]3COCC(C)O` (stereo partly drawn) [hydroxypropyl-β-cyclodextrin], the “fraction absorbed after oral administration” value is given as “about 5%”.
